The values that follow are results of earlier work, collected in patent US20190167649A1, “TOPICAL RAPAMYCIN THERAPY” (THE BOARD OF REGENTS OF THE UNIVERSITY OF TEXAS SYSTEM, priority 2016, published 2019).

For the substance Rapamycin, under “benzyl alcohol, chloroform, acetone, and acetonitrile”, the “solubility in organic solvents” value was “freely soluble”. Besides, the solubility in water (water) is 2.6 µg/mL.
